In PMC5051147, “Ester Hydrolysis Differentially Reduces Aconitine-Induced Anti-hypersensitivity and Acute Neurotoxicity: Involvement of Spinal Microglial Dynorphin Expression and Implications for Aconitum Processing” (Frontiers in Pharmacology, 2016):
Entries after “also recorded” stand apart in the source; their conditions may differ.

Experiments:
[1] = test system: dynorphin A expression in spinal microglia; conditions: 2016, cited from earlier work; for Effect on dynorphin A level / expression: spinal cord and cultured primary spinal microglia, ref Li et al.
[2] = test system: neuropathic rats; design: method as in Li et al., 2016; conditions: ref Li et al., 2016; cited from earlier work
[3] = test system: mechanical allodynia in spinal L5/L6 nerve–ligated neuropathic rats; assay: Mechanical allodynia (von Frey paw withdrawal threshold) after intrathecal injection in spinal nerve-ligated neuropathic rats; type: in vivo, rat; conditions: for Blockade of aconitine (100 ng) anti-allodynia / Blockade of benzolyaconine (10 μg) anti-allodynia: intrathecal pretreatment: antiserum 1:10 or nor-BNI 100 μg 0.5 h earlier, minocycline 100 μg 4 h earlier; for Own effect on withdrawal responses in contralateral or ipsilateral paws: compared with saline control
Description: (§1) An 18-cm polyethylene catheter (PE-10: 0.28-mm inner diameter and 0.61-mm outer diameter, Clay Adams, Parsippany, NJ, USA) with a volume of 13 μL was inserted into the lumbar level of the spinal cord as described elsewhere under inhalational isoflurane anesthesia (4% for induction and 1% for maintenance) run by an anesthesia meter (Ugo Basile Gas Anesthesia System, Comerio, Italy). Two days after recovery from anesthesia, the placement of the catheter in the spinal cord was verified by administration of 4% lidocaine (10 μL, followed by 15 μL of saline for flushing). Rats that had no motor impairment after placement of the intrathecal catheter were considered for the study, and rats that developed immediate bilateral paralysis of the hindlimbs after intrathecal administration of lidocaine were selected for the study. For intrathecal administration of the control and test articles, 10 μL of each drug was injected with a 50-μL microinjector (Shanghai Anting Micro-Injector Factory, Shanghai, China) and was flushed with 15 μL of normal saline solution.
(§2) To induce hypersensitivity to neuropathic pain, the rats were subjected to spinal nerve ligation as previously described [Kim and Chung (1992)] and [Zhang et al. (2013)]. Unilateral ligation of the L5 and L6 spinal nerves was performed under inhalational isoflurane anesthesia (4% for induction and 1% for maintenance) run by an anesthesia meter (Ugo Basile Gas Anesthesia System). The left L5 and L6 spinal nerves were isolated and tightly ligated with 6-0 silk thread. After ligation, the wound was sutured and the rats were returned to their home cages for recovery. After spinal nerve ligation, only those rats with marked unilateral allodynia to mechanical stimulation (i.e., a hindpaw withdrawal threshold of less than 8 g on the operated side) and with no major impairment were included in the study. Drug testing started 2–4 weeks after spinal nerve ligation.
To evaluate mechanical allodynia, the animals were acclimatized for at least 30 min to the test environment, namely, a plexiglass box on a metal grid (0.5 cm × 0.5 cm). The hindpaw withdrawal threshold was measured with a 2450 CE Electronic von Frey hair (IITC Life Science Inc, Woodland Hill, CA, USA). An electronic handheld transducer with a No. 15 monofilament was applied perpendicularly to the medial surface of the hindpaws with increasing force (ranging from 0.1 to 90 g) until the rat suddenly withdrew or licked the hindpaw. The lowest force that produced a withdrawal response was considered to be the threshold, which was the mean of three repeated measurements made in a 5-min interval.
(§3) The percentage of maximal possible effect (% MPE) was calculated using the following formula: (postdrug threshold in ipsilateral hindlimb – baseline threshold in ipsilateral hindlimb)/(baseline threshold in contralateral hindlimb – baseline threshold in ipsilateral hindlimb) × 100 ([Bowersox et al., 1996]). A % MPE value near 100 indicates normal mechanical thresholds (i.e., near contralateral thresholds), and a value near 0 indicates allodynia. For the dose-response curve analysis, the parameters (i.e., minimum effect; Emax, median effective concentration or dose, or median toxic or lethal dose [EC50, ED50, TD50, or LD50], and Hill coefficient [n]) were calculated from the individual dose-response curves using the Prism program (version 5.01, GraphPad Software, San Diego, CA, USA). To determine the parameters of the dose-response curves, the values of response (Y) were fitted by non-linear least-squares curves to the relation Y = a + bx, where x = [D]^n/(ED50^n + [D]^n), [C]^n/(EC50^n + [C]^n), [D]^n/(TD50^n + [D]^n) or [D]^n/(LD50^n + [D]^n), to give each value of ED50, EC50, TD50, or LD50 and b (Emax) yielding a minimum residual sum of squares of deviations from the theoretical curve ([Wang and Pang, 1993]).

[4] = test system: spinal nerve–ligated neuropathic rats; assay: Acute spinal neurotoxicity (flaccid paralysis and death) after intrathecal injection; type: in vivo, rat; conditions: for LD50 (mortality) / TD50 (for flaccid paralysis): intrathecal bolus, observed 24 h; for Normalized TD50: average of TD50 (paralysis) and LD50
Description: as §1
Survival and abnormal motor-blockade behaviors, including asthma, abdominal breathing, locomotion difficulty, and paralysis, were continuously monitored for 24 h after the treatment, with special attention given during the first 4 h. Paralysis was defined as an inability to negotiate a 60-degree inclined plane ([Durant and Yaksh, 1986]). Death was defined as respiratory arrest over a period of 5 min. The paralysis and mortality rates and their latencies were quantitatively recorded and tabulated.
as §3

[5] = test system: mice; conditions: intravenous injection in mice; ref Mizugaki and Ito, 2005; cited from earlier work
[6] = test system: heat hyperalgesia in spinal L5/L6 nerve–ligated neuropathic rats; assay: Heat hyperalgesia (radiant heat paw withdrawal latency) after intrathecal injection in spinal nerve-ligated neuropathic rats; type: in vivo, rat
Description: as §1, §2
To assess heat hyperalgesia, the rats were put in a plexiglass box on an elevated glass surface. After an adaptation period of at least 30 min, radiant heat was applied to the plantar medial surface of each hindpaw. The hindpaw withdrawal latency was measured with a Model 390G Plantar Test Analgesia Meter (IITC Life Science Inc.). To prevent tissue damage, the latency cutoff was set at 30 s. The paw withdrawal latency was defined as the time from the onset of radiant heat application to the withdrawal of the hindpaw. Both hindpaws were tested independently three times with a 5-min interval between trials. The result for each test was calculated as the mean of the three repeated measurements.
as §3, with “To determine the parameters of the dose-response curves, the values of response (Y) were fitted by non-linear least-squares curves to the relation Y = a + bx, where x = [D]^n/(ED50^n + [D]^n), [C]^n/(EC50^n + [C]^n), [D]^n/(TD50^n + [D]^n) or [D]^n/(LD50^n + [D]^n), to give each value of ED50, EC50, TD50, or LD50 and b (Emax) yielding a minimum residual sum of squares of deviations from the theoretical curve ([Wang and Pang, 1993]).” left out

[7] = test system: prodynorphin gene expression in primary cultures of spinal microglia; assay: Prodynorphin gene expression in cultured primary spinal microglia (real-time quantitative PCR); type: cell-based, rat
Description: Glial cells were isolated from the 1-day-old neonatal rats. The isolated spinal cords were minced and then incubated with trypsin. Dissociated cells were suspended in 75-cm^2 tissue culture flasks (1 × 10^7 cells/flask) precoated with poly-L-lysine and maintained in a 5% CO2 incubator at 37°C. After culture for 10 days, the microglial cells were prepared as floating cell suspensions by shaking the flask at 260 rpm for 2 h. The aliquots were transferred to plates, and the unattached cells were removed by washing with serum-free Dulbecco’s modified Eagle’s medium.
RNA extraction, reverse transcription, and real-time quantitative PCR were performed as previously described ([Chen et al., 2012]). The spinal lumbar enlargements of rats were collected and mechanically homogenized with an electronic microhomogenizer at 4,000 rpm for 10 s in TRIzol on ice. Total RNA from the spinal lumbar enlargements were isolated using TRIzol reagent (Invitrogen, Grand Island, NY, USA). A 1-μg sample of total RNA was reverse-transcribed with a ReverTra Ace qPCR RT-Kit (Toyobo, Japan). Real-time quantitative PCR was carried out with the Mastercycler ep realplex (Eppendorf, Germany) using the RealmasterMix (SYBR Green I) (Toyobo). The fold change was calculated with the 2^-ΔΔCt method after normalization to the gene of gapdh. […]
The percentage of maximal possible effect (% MPE) was calculated using the following formula: (postdrug threshold in ipsilateral hindlimb – baseline threshold in ipsilateral hindlimb)/(baseline threshold in contralateral hindlimb – baseline threshold in ipsilateral hindlimb) × 100 ([Bowersox et al., 1996]). […] For the dose-response curve analysis, the parameters (i.e., minimum effect; Emax, median effective concentration or dose, or median toxic or lethal dose [EC50, ED50, TD50, or LD50], and Hill coefficient [n]) were calculated from the individual dose-response curves using the Prism program (version 5.01, GraphPad Software, San Diego, CA, USA). […]
Primary cultures of microglial cells taken from the spinal cords of the neonatal rats were treated with a variety of concentrations of aconitine (1 × 10^-8, 3 × 10^-8, 1 × 10^-7, 3 × 10^-7, and 1 × 10^-6 M), benzolyaconine (3 × 10^-7, 1 × 10^-6, 3 × 10^-6, 1 × 10^-5, 3 × 10^-5, and 1 × 10^-4 M) and aconine (1 × 10^-4, 3 × 10^-4, 1 × 10^-3, 3 × 10^-3, and 1 × 10^-2 M) for 2 h. As the bulleyaconitine A-increased dynorphin A level measured by the enzyme-linked immunosorbent assay was in parallel with the prodynorphin gene expression in spinal microglia from neonatal and adult rats ([Li et al., 2016]), the expression of the cellular prodynorphin gene encoding dynorphin A was only measured in this study using real-time quantitative PCR. […]

[8] = test system: pain hypersensitivity in spinal nerve-ligated neuropathic rats; assay: Anti-hypersensitivity, normalized (anti-allodynia and anti-hyperalgesia ED50 averaged); type: in vivo, rat
Description: as §3
Table 1 summarizes the ED50 values in mole base for aconitine, benzolyaconine, and aconine to block pain hypersensitivity. Because anti-allodynia and anti-hyperalgesia were closely correlated, their ED50 values were averaged to obtain a normalized ED50 for anti-hypersensitivity. The ED50 ratios for aconitine and benzolyaconine to block mechanical allodynia and heat hyperalgesia were 1:92 and 1:110, with a normalized ED50 ratio of 1:102.

## CCCCN1CCCCC1C(=O)Nc1c(C)cccc1C (centres unmarked) [bupivacaine]
[1]
  Effect on dynorphin A level / expression: did not stimulate dynorphin A expression

## CCN(CC)CC(=O)Nc1c(C)cccc1C [lidocaine]
[1]
  Effect on dynorphin A level / expression: did not stimulate dynorphin A expression

## CN(C)c1ccc(O)c2c1C[C@H]1C[C@H]3[C@H](N(C)C)C(O)=C(C(N)=O)C(=O)[C@@]3(O)C(O)=C1C2=O [minocycline, reference compound]
[2]
  Effect on antinociceptive effects of bulleyaconitine A: completely abolished the antinociceptive effects of bulleyaconitine A
[3]
  Blockade of aconitine (100 ng) anti-allodynia: completely prevented
  Blockade of benzolyaconine (10 μg) anti-allodynia: completely alleviated benzolyaconine anti-allodynia
[3]; intrathecal
  Own effect on withdrawal responses in contralateral or ipsilateral paws: did not affect withdrawal thresholds

## CCN1C[C@]2(COC)[C@H](O)C[C@H](OC)[C@]34C1[C@H]([C@H](OC)[C@H]23)[C@]1(O)[C@H]2[C@@H](O)[C@](O)(C[C@H]24)[C@@H](OC)[C@@H]1O [Aconine, aconine]
[4]
  LD50 (mortality): 1.7 µmol
  TD50 (for flaccid paralysis): 1.5 µmol
[4]; intrathecal
  Normalized TD50: 1.6 µmol
[5]
  LD50: 120 mg/kg
[6]; up to 300 μg
  Effect on heat hyperalgesia in ipsilateral paws: did not produce significant anti-allodynia or anti-hyperalgesia; also recorded: did not alter mechanical allodynia or thermal hyperalgesia
[7]; up to 10 mM, 2 h
  Effect on prodynorphin gene (dynorphin A) expression: did not significantly affect prodynorphin gene expression; also recorded: did not significantly stimulate the dynorphin A expression
[3]; intrathecal, up to 300 μg
  Effect on mechanical allodynia in ipsilateral paws: did not produce significant anti-allodynia or anti-hyperalgesia; also recorded: did not alter mechanical allodynia or thermal hyperalgesia

## C=C1C2CCC3(C4C[C@H]5C6(CCC[C@@]5(C)CN(CC)C46)[C@H]3[C@H]2O)[C@@H]1O [Bullatine A]
[1]; microglia in the spinal cord and cultured primary microglia, ref Huang et al.
  Effect on dynorphin A expression: specifically stimulated dynorphin A expression

## Oc1ccc2c3c1O[C@H]1c4[nH]c5c(c4C[C@@]4(O)[C@@H](C2)N(CC2CC2)CC[C@]314)C[C@@]1(O)[C@H]2Cc3ccc(O)c4c3[C@@]1(CCN2CC1CC1)[C@H]5O4 [nor-BNI, Nor-binaltorphimine, reference compound]
[3]
  Blockade of aconitine (100 ng) anti-allodynia: completely blocked aconitine-induced anti-allodynia
  Blockade of benzolyaconine (10 μg) anti-allodynia: completely alleviated benzolyaconine anti-allodynia
[3]; intrathecal
  Own effect on withdrawal responses in contralateral or ipsilateral paws: did not affect the withdrawal responses

## CCN1CC2(COC)C(O)CC(OC)C34C5CC6(O)C(OC)C(O)C(O)(C5C6OC(=O)c5ccccc5)C(C(OC)C23)C14 (centres unmarked) [Benzolyaconine, benzoylaconine]
[4]; intrathecal
  Duration of toxic motor-blockade behavior: 5 to 10 min
  Latency of toxic motor-blockade behavior: 2 to 3 min
  Normalized TD50: 0.2 µmol
[4]
  LD50 (mortality): 0.2 µmol
  TD50 (for flaccid paralysis): 0.2 µmol
[8]; intrathecal, average of allodynia and hyperalgesia ED50
  Normalized ED50 for anti-hypersensitivity: 3.6 nmol
[8]; times greater than aconitine
  Normalized ED50 relative to that of aconitine: 102 times
[5]
  LD50: 23 mg/kg
[6]; 1 h after injection
  Emax, blockade of thermal hyperalgesia: 100 % MPE
[6]; % MPE at 1 h after injection
  ED50, anti-hyperalgesia: 3.5 nmol
[7]; Rattus norvegicus, primary spinal microglia of neonatal rats, 2 h incubation, read-out: EC50, stimulation of prodynorphin gene (dynorphin A) expression
  EC50: 3000 nM
[3]; intrathecal 10 μg
  Anti-allodynic effect in ipsilateral paws: marked and reversible anti-allodynia
[3]; intrathecal, 1 h after injection
  Emax, blockade of mechanical allodynia: 56.4 % MPE
[3]; intrathecal, % MPE at 1 h after injection
  ED50, anti-allodynia: 3.6 nmol
[3]; intrathecal, mechanical and thermal stimuli
  Effect on withdrawal responses in the contralateral paws: did not significantly affect the paw withdrawal responses in the contralateral paws
